Results on 22 molecules are retold here after PubChem BioAssay AID234 (DTP/NCI, 2004).

For this experiment, the system named is C3AKF1 mice, hamster liver cystadenocarcinoma s.c., tumor weight T/C. Briefly: NCI In Vivo Anticancer Drug Screen. Data for tumor model Cystadenocarcinoma, Liver (No. 1) (Hamster) (subcutaneous) in C3AKF1 (CHKRF1) mice. Particulars: endpoint: mean tumor weight, higher = larger tumour. As for the experimental part:
The antitumor activity of compounds was measured in mice bearing transplantable tumors. Survival or tumor size were measured and the results are expressed as the measurement made in the treated group (T) divided by the measurement made in the vehicle treated control group (C). The tumor model used in this assay is Cystadenocarcinoma, Liver (No. 1) (Hamster) (subcutaneous) in C3AKF1 (CHKRF1) mice

Where [1] appears, read: dose: 25.0 mg/kg/injection, schedule: Q01DX010 (ip), vehicle: carboxymethylcellulose (CMC).
The mark [2] stands for this setting: dose: 100.0 mg/kg/injection, schedule: Q01DX010 (ip), vehicle: carboxymethylcellulose (CMC).
The mark [3] stands for this setting: dose: 400.0 mg/kg/injection, schedule: Q01DX010 (ip), vehicle: carboxymethylcellulose (CMC).
Where [4] appears, read: dose: 3.5 mg/kg/injection, schedule: Q#A X020 (ip), vehicle: carboxymethylcellulose (CMC).
Setting [5] is: dose: 1.0 mg/kg/injection, schedule: Q01DX010 (ip), vehicle: carboxymethylcellulose (CMC).
Where [6] appears, read: dose: 2.0 mg/kg/injection, schedule: Q01DX010 (ip), vehicle: carboxymethylcellulose (CMC).
The mark [7] stands for this setting: dose: 4.0 mg/kg/injection, schedule: Q01DX010 (ip), vehicle: carboxymethylcellulose (CMC).
Where [8] appears, read: dose: 50.0 mg/kg/injection, schedule: Q01DX010 (ip), vehicle: carboxymethylcellulose (CMC).
The mark [9] stands for this setting: dose: 24.0 mg/kg/injection, schedule: Q01DX010 (ip), vehicle: saline.

“And” between values parts separate entries of the source, which are not always exact repeats. Identical values can stand only once. Records with an inconclusive call do not appear.

In the case of `O=C(COc1cc(Cl)c(Cl)cc1Cl)OCCOc1cc(Cl)c(Cl)cc1Cl`, the T/C reads like this: (dose: 11.25 mg/kg/injection, schedule: Q01DX010 (ip), vehicle: carboxymethylcellulose (CMC)) 88 % of control; (dose: 22.5 mg/kg/injection, schedule: Q01DX010 (ip), vehicle: carboxymethylcellulose (CMC)) 102 % of control; (dose: 45.0 mg/kg/injection, schedule: Q01DX010 (ip), vehicle: carboxymethylcellulose (CMC)) 87 % of control.

Take `Clc1ncnc2c1ncn2C1CCCO1` (stereo not drawn): the T/C was 77 % of control under setting [1]; 81 % of control and 93 % of control under setting [2]; 52 % of control and 72 % of control under setting [3]; 113 % of control (dose: 800.0 mg/kg/injection, schedule: Q01DX010 (ip), vehicle: carboxymethylcellulose (CMC)).

Take `NC(=O)/C=C/C(=O)O` (tested in a mixture with another compound): the T/C (dose: 31.0 mg/kg/injection, schedule: Q#A X010 (ip), vehicle: saline) is 68 % of control.

Regarding `O=S(=O)(O)C(Nc1ccccc1)c1ccccc1` (stereo not drawn), the T/C (dose: 100.0 mg/kg/injection, schedule: Q01DX010 (ip), vehicle: water) is 88 % of control; the T/C (dose: 200.0 mg/kg/injection, schedule: Q01DX010 (ip), vehicle: water) is 66 % of control; the T/C (dose: 400.0 mg/kg/injection, schedule: Q01DX010 (ip), vehicle: water) is 84 % of control.

For `O=C(NO)c1ccncc1`, the T/C reads like this: (dose: 250.0 mg/kg/injection, schedule: Q01DX010 (ip), vehicle: saline) 80 % of control; (dose: 500.0 mg/kg/injection, schedule: Q01DX010 (ip), vehicle: saline) 78 % of control; (dose: 750.0 mg/kg/injection, schedule: Q01DX010 (ip), vehicle: saline) 76 % of control.

For `CCC[CH2][Sn]1([CH2]CCC)[O]C(=O)C[S]1`, the T/C runs as follows: (dose: 0.39 mg/kg/injection, schedule: Q01DX010 (ip), vehicle: saline) 113 % of control; (dose: 0.78 mg/kg/injection, schedule: Q01DX010 (ip), vehicle: saline) 110 % of control; (dose: 1.56 mg/kg/injection, schedule: Q01DX010 (ip), vehicle: saline) 66 % of control.

With `Cn1c(=O)c2[nH]c(CCCc3nc4c([nH]3)c(=O)n(C)c(=O)n4C)nc2n(C)c1=O`, the T/C (dose: 20.0 mg/kg/injection, schedule: Q01DX010 (ip), vehicle: carboxymethylcellulose (CMC)) was 101 % of control and the T/C (dose: 40.0 mg/kg/injection, schedule: Q01DX010 (ip), vehicle: carboxymethylcellulose (CMC)) is 68 % of control.

Regarding `O=C(Nc1ccc(C2=NCCN2)cc1)c1ccc(C(=O)Nc2ccc(C3=NCCN3)cc2)c(NC(=O)c2ccc(C(=O)Nc3cc(C(=O)Nc4ccc(C5=NCCN5)cc4)ccc3C(=O)Nc3ccc(C4=NCCN4)cc3)cc2)c1`, the T/C by setting is: (dose: 62.0 mg/kg/injection, schedule: Q01DX010 (ip), vehicle: carboxymethylcellulose (CMC)) 102 % of control; (dose: 250.0 mg/kg/injection, schedule: Q01DX010 (ip), vehicle: carboxymethylcellulose (CMC)) 205 % of control.

Take `COc1ccc2c(c1OC)C(=O)O[C@@H]2[C@H]1c2c(cc3c(c2OC)OCO3)CCN1C`: the T/C is, setting by setting: (dose: 50.0 mg/kg/injection, schedule: Q01DX010 (ip), vehicle: saline) 102 % of control; (dose: 100.0 mg/kg/injection, schedule: Q01DX010 (ip), vehicle: saline) 88 % of control; (dose: 200.0 mg/kg/injection, schedule: Q01DX010 (ip), vehicle: saline) 92 % of control.

On to `O=C1C=CC(=O)O1` (tested in a mixture with another compound), for which the T/C by setting is: (dose: 1.5 mg/kg/injection, schedule: Q#A X020 (ip), vehicle: carboxymethylcellulose (CMC)) 68 % of control; under setting [4], 82 % of control; (dose: 7.5 mg/kg/injection, schedule: Q#A X010 (ip), vehicle: carboxymethylcellulose (CMC)) 91 % of control; (dose: 62.5 mg/kg/injection, schedule: Q#A X010 (ip), vehicle: carboxymethylcellulose (CMC)) 77 % of control.

As to `S=c1c2[nH]cnc2ncn1CCSC1=NC=NC2=NC=NC21` (stereo not drawn), the T/C under setting [2] was 95 % of control; the T/C (dose: 200.0 mg/kg/injection, schedule: Q01DX010 (ip), vehicle: carboxymethylcellulose (CMC)) is 100 % of control; the T/C under setting [3] was 97 % of control; the T/C (dose: 600.0 mg/kg/injection, schedule: Q01DX010 (ip), vehicle: carboxymethylcellulose (CMC)) is 93 % of control.

For the molecule `N[C@@H](Cc1ccc(N(CCCl)CCCl)cc1)C(=O)O`, the T/C by setting is: (dose: 0.5 mg/kg/injection, schedule: Q01DX010 (ip), vehicle: carboxymethylcellulose (CMC)) 57 % of control; under setting [5], 63 % of control; under setting [6], 92 % of control; under setting [7], 75 % of control.

As to `S=c1nc[nH]c2c1ncn2C1CCCO1` (stereo not drawn), the T/C is 95 % of control (dose: 12.0 mg/kg/injection, schedule: Q01DX010 (ip), vehicle: carboxymethylcellulose (CMC)); 74 % of control under setting [1]; 63 % of control under setting [8].

Turning to `CCc1c(CC(=O)O)c2cc(C)ccc2n1Cc1ccc(Cl)cc1`, the T/C is 70 % of control under setting [8] and 96 % of control under setting [2].

Consider `O=P(c1ccccc1)(N1CC1)N1CC1`, for which the T/C reads like this: (dose: 3.0 mg/kg/injection, schedule: Q01DX010 (ip), vehicle: saline) 108 % of control; (dose: 6.0 mg/kg/injection, schedule: Q01DX010 (ip), vehicle: saline) 98 % of control; (dose: 12.0 mg/kg/injection, schedule: Q01DX010 (ip), vehicle: saline) 76 % of control; under setting [9], 212 % of control.

With `O=[n+]1c2c(n([O-])c3ccccc31)-c1cccc3cccc-2c13`, the T/C was 64 % of control under setting [1], 74 % of control under setting [8] and 48 % of control under setting [2].

For the molecule `CCCCCCCCCCCCCS`, the T/C was 100 % of control under setting [1], 69 % of control under setting [8] and 90 % of control under setting [2].

With `NC(Cc1ccc(N(CCCl)CCCl)cc1)C(=O)O` (stereo not drawn), the T/C by setting is: under setting [5], 67 % of control; (dose: 1.25 mg/kg/injection, schedule: Q01DX010 (ip), vehicle: carboxymethylcellulose (CMC)) 70 % of control; under setting [6], 86 % of control; (dose: 2.5 mg/kg/injection, schedule: Q01DX010 (ip), vehicle: carboxymethylcellulose (CMC)) 65 % of control; under setting [7], 52 % of control; (dose: 5.0 mg/kg/injection, schedule: Q01DX010 (ip), vehicle: carboxymethylcellulose (CMC)) 82 % of control.

Regarding `NC(CCSCc1ccc(N(CCCl)CCCl)cc1)C(=O)O` (stereo not drawn), the T/C is, setting by setting: (dose: 4.5 mg/kg/injection, schedule: Q01DX010 (ip), vehicle: saline) 90 % of control; (dose: 9.0 mg/kg/injection, schedule: Q01DX010 (ip), vehicle: saline) 94 % of control; (dose: 16.0 mg/kg/injection, schedule: Q01DX010 (ip), vehicle: saline) 84 % of control; (dose: 18.0 mg/kg/injection, schedule: Q01DX010 (ip), vehicle: saline) 52 % of control; under setting [9], 63 % of control; (dose: 36.0 mg/kg/injection, schedule: Q01DX010 (ip), vehicle: saline) 55 % of control.

Consider `COC(=O)/C=C\C(=O)O` (tested in a mixture with another compound), for which the T/C under setting [4] was 105 % of control; the T/C (dose: 7.5 mg/kg/injection, schedule: Q#A X020 (ip), vehicle: carboxymethylcellulose (CMC)) was 49 % of control; the T/C (dose: 15.0 mg/kg/injection, schedule: Q#A X020 (ip), vehicle: carboxymethylcellulose (CMC)) is 38 % of control.

On to `CC(C)=CC1C(C(=O)OCc2ccc(C)cc2C)C1(C)C` (stereo not drawn), for which the T/C by setting is: (dose: 87.5 mg/kg/injection, schedule: Q01DX010 (ip), vehicle: carboxymethylcellulose (CMC)) 90 % of control; (dose: 175.0 mg/kg/injection, schedule: Q01DX010 (ip), vehicle: carboxymethylcellulose (CMC)) 72 % of control; (dose: 350.0 mg/kg/injection, schedule: Q01DX010 (ip), vehicle: carboxymethylcellulose (CMC)) 63 % of control.

For the molecule `Clc1ccc2c(Cl)ncnc2c1`, the T/C (dose: 4.8 mg/kg/injection, schedule: Q01DX010 (ip), vehicle: carboxymethylcellulose (CMC)) is 116 % of control; the T/C (dose: 9.5 mg/kg/injection, schedule: Q01DX010 (ip), vehicle: carboxymethylcellulose (CMC)) is 110 % of control; the T/C (dose: 19.0 mg/kg/injection, schedule: Q01DX010 (ip), vehicle: carboxymethylcellulose (CMC)) is 96 % of control; the T/C (dose: 37.5 mg/kg/injection, schedule: Q01DX010 (ip), vehicle: carboxymethylcellulose (CMC)) was 104 % of control.
